In patent publication US11524966B1 (Valo Early Discovery, Inc., priority 2017, dated 2022) one finds IC50 data, which are given here for 28 compounds.

SMILES strings stand for the structures.

Broadly, the IC50 is the midpoint of a concentration-inhibition curve.

For this test, the target named is T1, USP28 (His-tagged USP28-FL-mammalian) (Homo sapiens, UniProt Q96RU2).
T1 construct: Expression of USP28 (1-1077)-TEV-6*His (pTT5 vector); made in house; host or cells: Expi293f cells (pTT5 vector)
T1 sequence (Q96RU2 1-1077): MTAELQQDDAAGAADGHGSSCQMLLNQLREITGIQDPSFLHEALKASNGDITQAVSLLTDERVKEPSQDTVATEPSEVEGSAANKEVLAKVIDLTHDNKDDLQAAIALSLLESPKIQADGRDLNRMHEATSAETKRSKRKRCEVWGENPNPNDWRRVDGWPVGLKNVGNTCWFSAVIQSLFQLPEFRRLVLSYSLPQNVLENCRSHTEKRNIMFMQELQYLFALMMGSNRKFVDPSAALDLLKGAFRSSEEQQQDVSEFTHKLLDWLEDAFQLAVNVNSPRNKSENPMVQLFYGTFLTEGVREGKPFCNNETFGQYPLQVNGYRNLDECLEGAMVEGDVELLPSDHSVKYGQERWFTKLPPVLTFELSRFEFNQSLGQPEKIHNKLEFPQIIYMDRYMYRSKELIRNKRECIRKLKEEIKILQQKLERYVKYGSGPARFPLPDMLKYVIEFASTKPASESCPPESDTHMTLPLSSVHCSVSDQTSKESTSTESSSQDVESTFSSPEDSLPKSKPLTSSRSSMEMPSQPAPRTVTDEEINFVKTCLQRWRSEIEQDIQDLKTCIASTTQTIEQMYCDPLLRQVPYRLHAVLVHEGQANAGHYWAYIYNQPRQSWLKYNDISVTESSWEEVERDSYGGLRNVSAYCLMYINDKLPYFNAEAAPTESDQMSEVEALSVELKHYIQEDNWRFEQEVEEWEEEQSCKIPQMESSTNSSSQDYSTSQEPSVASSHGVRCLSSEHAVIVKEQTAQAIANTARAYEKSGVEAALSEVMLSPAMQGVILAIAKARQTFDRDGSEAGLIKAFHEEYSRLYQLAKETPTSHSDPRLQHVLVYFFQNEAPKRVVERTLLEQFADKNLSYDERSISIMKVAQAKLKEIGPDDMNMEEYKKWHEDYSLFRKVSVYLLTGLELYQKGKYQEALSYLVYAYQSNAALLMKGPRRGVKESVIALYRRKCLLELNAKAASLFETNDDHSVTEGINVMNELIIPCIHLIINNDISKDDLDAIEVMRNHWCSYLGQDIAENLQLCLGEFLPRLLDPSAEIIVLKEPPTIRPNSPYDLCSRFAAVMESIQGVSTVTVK
The experiment in a line: Ubiquitin-Rhodamine 110 Assay for USP28 Activity, Example A-1(a). The settings on record: Ub-Rh110 assay, Example A-1(a); read-out: USP28 A-1(a) IC50 range. In kind it is biochemical. Summed up:
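IC50 from 4-parameter logistic fit of percent inhibition versus no-enzyme and DMSO controls; compounds 25 μM to 1.3 nM, 3-fold. Ub-Rh110 cleavage (25 nM, below Km) by […] mammalian-expressed USP28-FL-His ran 45 min at room temperature, stopped with 10 mM citric acid, read ex 485/em 535.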
As for `Cc1cc(C)c2c(N)c(C(=O)N[C@H]3COc4cc(N5CC6CC(C5)N6)ccc4C3)sc2n1` [Example 2-18, N-((3R)-7-(3,6-diazabicyclo[3.1.1]heptan-3-yl)chroman-3-yl)-3-amino-4,6-dimethylthieno[2,3-b]pyridine-2-carboxamide], the half-maximal inhibitory concentration (IC50) lay in the range of 0.001 to 0.05 µM. Next, `O=C(N[C@H]1COc2cc(N3CC4CCC(C3)N4)ccc2C1)c1cnc2c(c1)C1(CCN2)CC1` [Example 2-24, N-((3R)-7-(3,8-diazabicyclo[3.2.1]octan-3-yl)chroman-3-yl)-2′,3′-dihydro-1′H-spiro[cyclopropane-1,4′-[1,8]naphthyridine]-6′-carboxamide]: 0.05 to 0.2 µM; `Cc1nc2sc(C(=O)N[C@H]3COc4cc(N5CC6CNCC(C5)C6(F)F)ccc4C3)c(N)c2s1` [Example 2-28, 6-amino-N-((3R)-7-(9,9-difluoro-3,7-diazabicyclo[3.3.1]nonan-3-yl)chroman-3-yl)-2-methylthieno[2,3-d]thiazole-5-carboxamide]: 0.001 to 0.05 µM. To `Cc1ccc2c(N)c(C(=O)N[C@H]3COc4cc(N5CCNCC5)c(F)cc4C3)sc2n1` [Example 1-35, (R)-3-amino-N-(6-fluoro-7-(piperazin-1-yl)chroman-3-yl)-6-methylthieno[2,3-b]pyridine-2-carboxamide] belongs 0.001 to 0.05 µM; to `Cc1ccc2c(N)c(C(=O)N[C@H]3COc4cc(N5CCC[C@@](N)(C(F)(F)F)C5)ccc4C3)sc2n1` (single isomer, unassigned) [Example 3-3], 0.001 to 0.05 µM. Next, `Cc1ccc2c(N)c(C(=O)N[C@H]3COc4cc(N5CCNCC56COC6)ccc4C3)sc2n1` [Example 2-10]: 0.001 to 0.05 µM. As for `Cc1ccc2c(N)c(C(=O)N[C@H]3COc4c(ccc(N5CCNCC5)c4F)C3)sc2n1` [Example 1-33, (R)-3-amino-N-(8-fluoro-7-(piperazin-1-yl)chroman-3-yl)-6-methylthieno[2,3-b]pyridine-2-carboxamide], the IC50 lay in the range of 0.001 to 0.05 µM. Turning to `Cc1ccc2c(N)c(C(=O)N[C@H]3COc4cc(N5CCN[C@@H](C)[C@@H]5C)ccc4C3)sc2n1` (single isomer, unassigned) [Example 1-13], the concentration for half-maximal inhibition (IC50) was in the range of 0.05 to 0.2 µM. `Cc1cnc2c(N)c(C(=O)N[C@H]3CCc4c(ccc(N5CCNCC5)c4C)C3)sc2n1` (single isomer, unassigned) [Example 2-36]: the IC50 was 0.2 to 2 µM. As to `Nc1c(C(=O)N[C@H]2COc3cc(N4CC5CC(C4)N5)ccc3C2)sc2nc(F)ccc12` [Example 2-14, N-((3R)-7-(3,6-diazabicyclo[3.1.1]heptan-3-yl)chroman-3-yl)-3-amino-6-fluorothieno[2,3-b]pyridine-2-carboxamide], the 50% inhibitory concentration (IC50) was in the range of 0.001 to 0.05 µM. To `Cc1ccc2c(N)c(C(=O)N[C@H]3COc4cc(N5CCNCC5)ccc4C3)sc2n1` (single isomer, unassigned) [Example 1-1] belongs 0.001 to 0.05 µM; to `Cc1cnc2c(N)c(C(=O)N[C@H]3CCc4cc(N5CCNCC5)c(C)cc4C3)sc2n1` (single isomer, unassigned) [Example 2-34], 0.05 to 0.2 µM; to `Cc1cc(C)c2c(N)c(C(=O)N[C@H]3COc4cc(N5CC6CNCC(C5)C6(F)F)ccc4C3)sc2n1` [Example 2-19, 3-amino-N-((3R)-7-(9,9-difluoro-3,7-diazabicyclo[3.3.1]nonan-3-yl)chroman-3-yl)-4,6-dimethylthieno[2,3-b]pyridine-2-carboxamide], 0.001 to 0.05 µM. To `Cc1cc(C)c2c(N)c(C(=O)N[C@H]3COc4cc(N5CC6CNCC(C5)O6)ccc4C3)sc2n1` [Example 2-20, N-((3R)-7-(9-oxa-3,7-diazabicyclo[3.3.1]nonan-3-yl)chroman-3-yl)-3-amino-4,6-dimethylthieno[2,3-b]pyridine-2-carboxamide] belongs 0.001 to 0.05 µM. Regarding `[2H]C([2H])([2H])O[C@H]1CN(c2ccc3c(c2)OC[C@H](NC(=O)c2sc4nc(C)ccc4c2N)C3)C[C@@H]1N` [Example 2-38, 3-amino-N-((R)-7-((3S,4S)-3-amino-4-(methoxy-d3)pyrrolidin-1-yl)chroman-3-yl)-6-methylthieno[2,3-b]pyridine-2-carboxamide], the IC50 fell in the range of 0.05 to 0.2 µM. Next, `Cc1cc(C(F)(F)F)c2c(N)c(C(=O)N[C@H]3COc4cc(N5CC6CNCC(C5)C6(F)F)ccc4C3)sc2n1` [Example 2-22, 3-amino-N-((3R)-7-(9,9-difluoro-3,7-diazabicyclo[3.3.1]nonan-3-yl)chroman-3-yl)-6-methyl-4-(trifluoromethyl)thieno[2,3-b]pyridine-2-carboxamide]: 0.001 to 0.05 µM. Take `Cc1ccc2c(N)c(C(=O)N[C@@H]3COc4cc(N5CCN[C@H](C)[C@@H]5C)ccc4C3)sc2n1` (single isomer, unassigned) [Example 1-10]: the concentration for half-maximal inhibition (IC50) fell in the range of 0.001 to 0.05 µM. To `Cc1ccc2c(N)c(C(=O)N[C@@H]3COc4cc(N5CC6CCCC(C5)N6)ccc4C3)sc2n1` (single isomer, unassigned) [Example 1-6] belongs 0.05 to 0.2 µM. As for `Nc1c(C(=O)N[C@@H]2COc3cc(N4CC5CCC(C4)N5)ccc3C2)sc2ncc(F)cc12` (single isomer, unassigned) [Example 1-18], the 50% inhibitory concentration (IC50) was over 2 µM. Next, `Nc1c(C(=O)N[C@H]2COc3cc(N4CC5CCC(C4)N5)ccc3C2)sc2ncc(F)cc12` (single isomer, unassigned) [Example 1-17]: 0.05 to 0.2 µM; `Cc1cnc2c(N)c(C(=O)N[C@H]3COc4cc(N5CC6CNCC(C5)O6)ccc4C3)sc2n1` [Example 2-13, N-((3R)-7-(9-oxa-3,7-diazabicyclo[3.3.1]nonan-3-yl)chroman-3-yl)-7-amino-3-methylthieno[2,3-b]pyrazine-6-carboxamide]: 0.001 to 0.05 µM; `Cc1ccc2c(N)c(C(=O)N[C@@H]3COc4cc(N5CC6CCC(C5)N6)ccc4C3)sc2n1` (single isomer, unassigned) [Example 1-4]: 0.2 to 2 µM.

In the case of `Cc1cnc2c(N)c(C(=O)N[C@H]3COc4cc(N5CC6CC(C5)N6)ccc4C3)sc2n1` [Example 2-11, N-((3R)-7-(3,6-diazabicyclo[3.1.1]heptan-3-yl)chroman-3-yl)-7-amino-3-methylthieno[2,3-b]pyrazine-6-carboxamide], the IC50 lay within 0.001 to 0.05 µM.

On to `Cc1ccc2c(N)c(C(=O)N[C@@H]3COc4cc(N5CC6CC(C5)N6)cc(F)c4C3)sc2n1` (single isomer, unassigned) [Example 1-41], for which the concentration for half-maximal inhibition (IC50) was in the range of 0.001 to 0.05 µM. Next, `Cc1ccc2c(N)c(C(=O)N[C@@H]3COc4cc(N5CCN[C@H](C)[C@H]5C)ccc4C3)sc2n1` (single isomer, unassigned) [Example 1-12]: 0.001 to 0.05 µM; `Cc1ccc2c(N)c(C(=O)N[C@H]3COc4cc(N5CCNC[C@@H]5C)ccc4C3)sc2n1` [Example 2-4, 3-amino-6-methyl-N-((R)-7-((S)-2-methylpiperazin-1-yl)chroman-3-yl)thieno[2,3-b]pyridine-2-carboxamide]: 0.001 to 0.05 µM; `Cc1ccc2c(N)c(C(=O)N[C@H]3COc4cc(N5CCN[C@@H](C)C5)ccc4C3)sc2n1` [Example 2-8, 3-amino-6-methyl-N-((R)-7-((S)-3-methylpiperazin-1-yl)chroman-3-yl)thieno[2,3-b]pyridine-2-carboxamide]: 0.001 to 0.05 µM. To `Cc1nc2sc(C(=O)N[C@H]3COc4cc(N5CCNCC5)ccc4C3)c(N)c2s1` [Example 1-25, (R)-6-amino-2-methyl-N-(7-(piperazin-1-yl)chroman-3-yl)thieno[2,3-d]thiazole-5-carboxamide] belongs 0.001 to 0.05 µM.
